Data published in paper PMC11995724, “Antibiotic target discovery by integrated phenotypic and activity-based profiling of electrophilic fragments” (Cell chemical biology, 2025).
Counter-ions that a name gives are not always drawn.

Test: in vitro
Conditions: human, hek293t cells

Row | SMILES | viability at 48 h, 25 µM [%]
1 | Cc1ccc(C(CNC(=O)C(C)Cl)N2CCOCC2)s1 (centres unmarked) [7-N13, 2-chloro-N-[2-(5-methylthiophen-2-yl)-2-(morpholin-4-yl)ethyl]propanamide] | 108
2 | O=C(CCl)NC1c2ccccc2CCC1n1ccnc1 (centres unmarked) [7-N14, 2-chloro-N-[2-(1H-imidazol-1-yl)-1,2,3,4-tetrahydronaphthalen-1-yl]acetamide hydrochloride] | 95.8
3 | CNC(=O)c1ccc(C2CCCCN2C(=O)C(C)Cl)n1C (centres unmarked) [7-N15, 5-[1-(2-chloropropanoyl)piperidin-2-yl]-N,1-dimethyl-1H-pyrrole-2-carboxamide] | 97.6
4 | CC(NC(=O)CCl)C(=O)N1c2ccccc2CC1C (centres unmarked) [7-N16, 2-chloro-N-[1-(2-methyl-2,3-dihydro-1H-indol-1-yl)-1-oxopropan-2-yl]acetamide] | 0.726
5 | CCc1nc2c(s1)C(N(C)C(=O)C(C)Cl)CCC2 (centres unmarked) [7-N17, 2-chloro-N-(2-ethyl-4,5,6,7-tetrahydro-1,3-benzothiazol-7-yl)-N-methylpropanamide] | 84.1
6 | O=C(CCl)NCC1CCCN(C(=O)C(F)(F)F)C1 (centres unmarked) [7-N18, 2-chloro-N-{[1-(2,2,2-trifluoroacetyl)piperidin-3-yl]methyl}acetamide] | 0.898
7 | CC(Cl)C(=O)NC1Cc2ccccc2N(C(=O)C(F)(F)F)C1 (centres unmarked) [7-N19, 2-chloro-N-[1-(2,2,2-trifluoroacetyl)-1,2,3,4-tetrahydroquinolin-3-yl]propanamide] | 87.1
8 | O=C(CCl)NC(Cc1cccc(O)c1)c1ccccc1 (centres unmarked) [7-N20, 2-chloro-N-[2-(3-hydroxyphenyl)-1-phenylethyl]acetamide] | 0.777
9 | CC(Cl)C(=O)NC(C)c1nnnn1C1CC1 (centres unmarked) [7-N21, 2-chloro-N-[1-(1-cyclopropyl-1H-1,2,3,4-tetrazol-5-yl)ethyl]propanamide] | 75.9
10 | CC(Cl)C(=O)N1Cc2cccn2[C@@H](C)C1 (stereo partly drawn) [7-N22, 2-chloro-1-[(4S)-4-methyl-1H,2H,3H,4H-pyrrolo[1,2-a]pyrazin-2-yl]propan-1-one] | 86.7
11 | CC(Cl)C(=O)NCC1CN(c2nncs2)CCO1 (centres unmarked) [7-O03, 2-chloro-N-{[4-(1,3,4-thiadiazol-2-yl)morpholin-2-yl]methyl}propanamide] | 106
12 | Cc1nc([C@H]2CCCN2C(=O)C(C)Cl)cs1 (stereo partly drawn) [7-O04, 2-chloro-1-[(2R)-2-(2-methyl-1,3-thiazol-4-yl)pyrrolidin-1-yl]propan-1-one] | 95.2
13 | CC(Cl)C(=O)NC1CCN(S(=O)(=O)c2cnn(C)c2)CC1 (centres unmarked) [7-O05, 2-chloro-N-{1-[(1-methyl-1H-pyrazol-4-yl)sulfonyl]piperidin-4-yl}propanamide] | 113
14 | CC(=O)NC1(c2nc(C)cs2)CCN(C(=O)C(C)Cl)C1 (centres unmarked) [7-O06, N-[1-(2-chloropropanoyl)-3-(4-methyl-1,3-thiazol-2-yl)pyrrolidin-3-yl]acetamide] | 114
15 | CC(Cl)C(=O)N1CCN(C(C)C)c2ccccc2C1 (centres unmarked) [7-O07, 2-chloro-1-[1-(propan-2-yl)-2,3,4,5-tetrahydro-1H-1,4-benzodiazepin-4-yl]propan-1-one] | 81.6
16 | CC(Cl)C(=O)NCCc1csc(N2CCCC2)n1 (centres unmarked) [7-O08, 2-chloro-N-{2-[2-(pyrrolidin-1-yl)-1,3-thiazol-4-yl]ethyl}propanamide] | 95.9
17 | CC(Cl)C(=O)N[C@H](CC(N)=O)c1cccc(Cl)c1 (stereo partly drawn) [7-O09, (3R)-3-(3-chlorophenyl)-3-(2-chloropropanamido)propanamide] | 102
18 | Cc1ccc(CNC(=O)C(C)Cl)c2ccccc12 (centres unmarked) [7-O10, 2-chloro-N-[(4-methylnaphthalen-1-yl)methyl]propanamide] | 88.6
19 | Cc1noc(C)c1S(=O)(=O)N1CCCN(C(=O)C(C)Cl)CC1 (centres unmarked) [7-O11, 2-chloro-1-{4-[(3,5-dimethyl-1,2-oxazol-4-yl)sulfonyl]-1,4-diazepan-1-yl}propan-1-one] | 89.5
20 | CC(Cl)C(=O)N1CCC(c2cc3ccccc3[nH]2)C1 (centres unmarked) [7-O12, 2-chloro-1-[3-(1H-indol-2-yl)pyrrolidin-1-yl]propan-1-one] | 82.5
21 | Cc1cc(C2(NC(=O)C(C)Cl)CCOCC2)on1 (centres unmarked) [7-O13, 2-chloro-N-[4-(3-methyl-1,2-oxazol-5-yl)oxan-4-yl]propanamide] | 95.5
22 | Cc1noc(C)c1COC1CCN(C(=O)C(C)Cl)C1 (centres unmarked) [7-O14, 2-chloro-1-{3-[(3,5-dimethyl-1,2-oxazol-4-yl)methoxy]pyrrolidin-1-yl}propan-1-one] | 90.9
23 | CC(Cl)C(=O)N1C2CCC1CC(c1ccnn1C)C2 (centres unmarked) [7-O15, 2-chloro-1-[3-(1-methyl-1H-pyrazol-5-yl)-8-azabicyclo[3.2.1]octan-8-yl]propan-1-one] | 88.6
24 | CCC(C)C1CN(Cc2ccc(C)nc2)CCN1C(=O)C(C)Cl (centres unmarked) [7-O16, 1-[2-(butan-2-yl)-4-[(6-methylpyridin-3-yl)methyl]piperazin-1-yl]-2-chloropropan-1-one] | 74.9
25 | CC(Cl)C(=O)NCc1nc2cccnc2n1C (centres unmarked) [7-O17, 2-chloro-N-({3-methyl-3H-imidazo[4,5-b]pyridin-2-yl}methyl)propanamide] | 103

Row | SMILES | viability at 48 h, 25 µM [%]
26 | CC(Cl)C(=O)NCc1cccc(N2C(=O)NC3(CCCC3)C2=O)c1 (centres unmarked) [7-O18, 2-chloro-N-[(3-{2,4-dioxo-1,3-diazaspiro[4.4]nonan-3-yl}phenyl)methyl]propanamide] | 103
27 | Cc1cc(C)n(CCCNC(=O)C(C)Cl)n1 (centres unmarked) [7-O19, 2-chloro-N-[3-(3,5-dimethyl-1H-pyrazol-1-yl)propyl]propanamide] | 78.1
28 | CC(Cl)C(=O)NCC1CC(=O)N(c2ccccc2)C1 (centres unmarked) [7-O20, 2-chloro-N-[(5-oxo-1-phenylpyrrolidin-3-yl)methyl]propanamide] | 85.1
29 | Cc1nc2ccccc2n(CCCNC(=O)C(C)Cl)c1=O (centres unmarked) [7-O21, 2-chloro-N-[3-(3-methyl-2-oxo-1,2-dihydroquinoxalin-1-yl)propyl]propanamide] | 59.4
30 | CC(Cl)C(=O)Nc1ccc(Cc2nnc3ncccn23)cc1 (centres unmarked) [7-O22, 2-chloro-N-[4-({[1,2,4]triazolo[4,3-a]pyrimidin-3-yl}methyl)phenyl]propanamide] | 74.1
31 | Cc1ccsc1CN(C(=O)CCl)C(C)C [7-P03, 2-chloro-N-[(3-methylthiophen-2-yl)methyl]-N-(propan-2-yl)acetamide] | 0.159
32 | O=C(CCl)NCCC1CCCC1(F)F (centres unmarked) [7-P04, 2-chloro-N-[2-(2,2-difluorocyclopentyl)ethyl]acetamide] | 1.08
33 | CC(Cl)C(=O)NCc1nn(-c2ccccc2)c2c1CCC2 (centres unmarked) [7-P05, 2-chloro-N-({1-phenyl-1H,4H,5H,6H-cyclopenta[c]pyrazol-3-yl}methyl)propanamide] | 116
34 | O=C(CCl)NC1CCN(C(=O)c2ccccc2)C1 (centres unmarked) [7-P06, N-(1-benzoylpyrrolidin-3-yl)-2-chloroacetamide] | 0.866
35 | CC(Cl)C(=O)NC(C)C(=O)Nc1ccc(-n2cncn2)cc1 (centres unmarked) [7-P07, 2-chloro-N-(1-{[4-(1H-1,2,4-triazol-1-yl)phenyl]carbamoyl}ethyl)propanamide] | 98.6
36 | O=C(CCl)NC1C=C(c2ccc(Cl)cc2)CCC1 (centres unmarked) [7-P08, 2-chloro-N-[3-(4-chlorophenyl)cyclohex-2-en-1-yl]acetamide] | 0.393
37 | COc1ccc(Cl)c2c1CCCC2N(C)C(=O)C(C)Cl (centres unmarked) [7-P09, 2-chloro-N-(8-chloro-5-methoxy-1,2,3,4-tetrahydronaphthalen-1-yl)-N-methylpropanamide] | 86.7
38 | CCn1nc(C)c(CNC(=O)CCl)c1C [7-P10, 2-chloro-N-[(1-ethyl-3,5-dimethyl-1H-pyrazol-4-yl)methyl]acetamide] | 30
39 | CC(Cl)C(=O)NCCc1nc2cc(F)ccc2s1 (centres unmarked) [7-P11, 2-chloro-N-[2-(5-fluoro-1,3-benzothiazol-2-yl)ethyl]propanamide] | 89.1
40 | Cc1ccc(F)c(S(=O)(=O)NCCNC(=O)CCl)c1 [7-P12, 2-chloro-N-[2-(2-fluoro-5-methylbenzenesulfonamido)ethyl]acetamide] | 1.05
41 | Cc1nc(C)n(C2CCCN(C(=O)C(C)Cl)C2)n1 (centres unmarked) [7-P13, 2-chloro-1-[3-(3,5-dimethyl-1H-1,2,4-triazol-1-yl)piperidin-1-yl]propan-1-one] | 92.3
42 | NC(=O)c1ccccc1N1CCC(NC(=O)CCl)CC1 [7-P14, 2-[4-(2-chloroacetamido)piperidin-1-yl]benzamide hydrochloride] | 0.53
43 | CC(Cl)C(=O)NCC(=O)N(C)Cc1cccnc1 (centres unmarked) [7-P15, 2-chloro-N-({methyl[(pyridin-3-yl)methyl]carbamoyl}methyl)propanamide] | 91.3
44 | O=C(CCl)N[C@H]1CCN(S(=O)(=O)c2ccccc2)C1 [7-P16, N-[(3S)-1-(benzenesulfonyl)pyrrolidin-3-yl]-2-chloroacetamide] | 0.479
45 | Cc1cc(C)n(CC2CCN(C(=O)C(C)Cl)CC2)n1 (centres unmarked) [7-P17, 2-chloro-1-{4-[(3,5-dimethyl-1H-pyrazol-1-yl)methyl]piperidin-1-yl}propan-1-one] | 79.8
46 | CC(c1ccc(C(F)(F)F)cc1F)N(C)C(=O)CCl (centres unmarked) [7-P18, 2-chloro-N-{1-[2-fluoro-4-(trifluoromethyl)phenyl]ethyl}-N-methylacetamide] | 0.35
47 | Cc1nn(CC(C)C)c(Cl)c1C1CCCN1C(=O)C(C)Cl (centres unmarked) [7-P19, 2-chloro-1-{2-[5-chloro-3-methyl-1-(2-methylpropyl)-1H-pyrazol-4-yl]pyrrolidin-1-yl}propan-1-one] | 78
48 | O=C(CCl)NCC(F)(F)c1cc(-c2ccccc2)n[nH]1 [7-P20, 2-chloro-N-[2,2-difluoro-2-(3-phenyl-1H-pyrazol-5-yl)ethyl]acetamide] | 0.938
49 | CN(CCc1ccccc1O)C(=O)CCl [7-P21, 2-chloro-N-[2-(2-hydroxyphenyl)ethyl]-N-methylacetamide] | -0.172
50 | CC(Cl)C(=O)N1CCN(C(C)c2cccc(C#N)c2)CC1 (centres unmarked) [7-P22, 3-{1-[4-(2-chloropropanoyl)piperazin-1-yl]ethyl}benzonitrile] | 66.4
